Read-outs that look alike come from different tables or passages of the source.
Tests used:
[1] = Stability of prodrugs in aqueous solution at pH 7.4 (phosphate buffer); format: physicochemical
Experimental: Determination of stability of prodrugs in aqueous solutions.
Prodrugs were dissolved in pH 7.4 phosphate buffer at concentration of 1 mg/mL. • The clear solution was placed at room temperature. 400 μL aliquots of the solution were transferred at times 0, 1, 2, 8, 24, and 48 hours to plastic tubes containing 400 μL dilute HCl solution to achieve the final pH of around 4.0. Samples were analyzed by HPLC. The peak area of florfenicol was used to determine the rate of the parent drug release. at pH 4.5 • Prodrugs were dissolved in distilled water at concentration of 0.5 mg/mL. The pH was adjusted to 4.5 with dilute HCl when necessary. The clear solution was placed at room temperature. Samples for analysis were removed at times 0, 1, 2, 4, and 7 days. Samples were analyzed by HPLC. Peak area of florfenicol was used to determine the rate of the parent drug release.
(§1) Solvent: gradient with 0.1% formic acid in water, acetonitrile

[2] = Stability of prodrugs in aqueous solution at pH 4.5; format: physicochemical; details: distilled water, pH 4.5, room temperature, florfenicol release by HPLC
Experimental: Determination of stability of prodrugs in aqueous solutions. Prodrugs were dissolved in pH 7.4 phosphate buffer at concentration of 1 mg/mL. • The clear solution was placed at room temperature. 400 μL aliquots of the solution were transferred at times 0, 1, 2, 8, 24, and 48 hours to plastic tubes containing 400 μL dilute HCl solution to achieve the final pH of around 4.0. Samples were analyzed by HPLC. The peak area of florfenicol was used to determine the rate of the parent drug release. at pH 4.5 • Prodrugs were dissolved in distilled water at concentration of 0.5 mg/mL. The pH was adjusted to 4.5 with dilute HCl when necessary. The clear solution was placed at room temperature. Samples for analysis were removed at times 0, 1, 2, 4, and 7 days. Samples were analyzed by HPLC. Peak area of florfenicol was used to determine the rate of the parent drug release. Instrument: Agilent 1100 Column: C18, […], 2.1 mm×150 mm Flow rate: 0.5 mL/min Temperature: 30° C. Detector: UV 254 nm Injection volume: […] Solvent: gradient with 0.1% formic acid in water, acetonitrile

[3] = Stability of prodrugs in bovine serum; format: in vitro ADME; details: for half-life at 0.099 mg/mL: 37° C.
Experimental: (§2) Determination of stability of prodrugs in bovine or swine serum; • 10 mg/mL in dimethylsulfoxide stock solutions of pro-drugs were prepared. 50 μL of the above stock solution was added to 5 mL bovine or swine serum, and mixed. 400 μL aliquots of the above pro-drug serum solutions were transferred into plastic tubes (one tube per time point). Solutions were incubated at 37° C. for predetermined time. Samples were removed at times 0, 1, 2, 4, 8, and 24 hours and were spiked with 400 μL of acetonitrile. Samples were stirred for 30 seconds to precipitate the protein and to stop the reaction and were centrifuged at 14,000 rpm for 5 minutes. The supernatant was collected for HPLC analysis. Peak area of florfenicol was used to determine the rate of the parent drug release HPLC Conditions
as §1

[4] = Stability of prodrugs in aqueous solution at pH 7.4 (phosphate buffer); format: physicochemical; details: in vitro evaluation, pH 7.4 adjusted solution
[5] = Stability of prodrugs in swine serum; format: in vitro ADME; details: 37° C., florfenicol release by HPLC
Experimental: as §2, §1

[6] = pH 7.4, pH 7.4 phosphate buffer, 1 mg/mL, room temperature, florfenicol release by HPLC, read-out: Half life pH 7.4 (converted)
[7] = pH 7.4, pH 7.4 aqueous solutions, range from a few minutes to 3 hrs, read-out: Half-lives in pH 7.4 aqueous solutions

Row | half-life at 1 mg/mL [1, 6] [h] | half-life at 0.5 mg/mL [2] [days] | half-life at 0.099 mg/mL ([3]; florfenicol release by HPLC) [h] | formation of the rearranged isomer of the prodrug [4] | half-life at 0.099 mg/mL [5] [h] | half-life at 1 mg/mL [1, 7] [h] | half-life at 1 mg/mL ([1]; pH 7.4, pH 7.4 phosphate buffer, 1 mg/mL, room temperature, min, read-out: Half life pH 7.4 (converted)) [h] | half-life at 0.099 mg/mL ([3]; min) [h] | rearrangement in bovine serum [3] | Compound
1 | 350 | > 1000 | 10.5 | – | – | – | – | – | – | Br.Cn1cc[n+](CCCC(=O)O[C@H](c2ccc(S(C)(=O)=O)cc2)[C@@H](CF)NC(=O)C(Cl)Cl)c1 [Example 16, 1-[3-[2-(2,2-Dichloro-acetylamino)-3-fluoro-1-(4-methanesulfonyl-phenyl)-propoxycarbonyl]-propyl]-3-methyl-3H-imidazol-1-ium bromide]
2 | – | 44 | – | – | – | ≤ 3 | < 0.167 | < 0.167 | – | CS(=O)(=O)c1ccc([C@@H](OC(=O)[C@H](N)CCCN)[C@@H](CF)NC(=O)C(Cl)Cl)cc1.Cl.Cl [Example 8]
3 | 84 | 567 | 1.4 | – | – | – | – | – | – | CNCCCCC(=O)O[C@H](c1ccc(S(C)(=O)=O)cc1)[C@@H](CF)NC(=O)C(Cl)Cl.Cl [Example 12]
4 | 0.89 | 52 | 1.4 | – | 1.2 | ≤ 3 | – | – | – | CS(=O)(=O)c1ccc([C@@H](OC(=O)CNC(=O)CN)[C@@H](CF)NC(=O)C(Cl)Cl)cc1.Cl [Example 9, (1R,2S)-2-(2,2-dichloroacetamido)-3-fluoro-1-(4-(methylsulfonyl)phenyl)propyl (1-amino-acetoamino)acetate hydrochloride]
5 | 160 | > 1000 | – | – | – | – | – | – | – | Br.C[N+](C)(C)CCCC(=O)O[C@H](c1ccc(S(C)(=O)=O)cc1)[C@@H](CF)NC(=O)C(Cl)Cl [Example 15]
6 | 4.4 | 18 | 1.8 | – | – | – | – | – | – | CS(=O)(=O)c1ccc([C@@H](OC(=O)CN)[C@@H](CF)NC(=O)C(Cl)Cl)cc1 [Example 17, Amino-acetic acid 2-(2,2-dichloro-acetylamino)-3-fluoro-1-(4-methanesulfonyl-phenyl)-propyl ester]
7 | 2.5 | 290 | – | – | – | ≤ 3 | – | < 0.167 | – | C[C@H](N)C(=O)N[C@@H](C)C(=O)O[C@H](c1ccc(S(C)(=O)=O)cc1)[C@@H](CF)NC(=O)C(Cl)Cl.Cl [Example 11, (1R,2S)-2-(2,2-dichloroacetamido)-3-fluoro-1-(4-(methylsulfonyl)phenyl)propyl 2-(2-amino-propionylamino)propionate hydrochloride]
8 | 0.66 | 137 | – | – | – | ≤ 3 | – | < 0.167 | – | CS(=O)(=O)c1ccc([C@@H](OC(=O)COCCN)[C@@H](CF)NC(=O)C(Cl)Cl)cc1.Cl [Example 14, (1R,2S)-2-(2,2-dichloroacetamido)-3-fluoro-1-(4-(methylsulfonyl)phenyl)propyl (2-amino-ethoxy)acetate hydrochloride]
9 | 290 | 339 | 0.71 | – | – | – | – | – | – | CCNCCCOC(=O)O[C@H](c1ccc(S(C)(=O)=O)cc1)[C@@H](CF)NC(=O)C(Cl)Cl.Cl [Example 13, (1R,2S)-2-(2,2-dichloroacetamido)-3-fluoro-1-(4-(methylsulfonyl)phenyl)propyl 3-(ethylamino)propyl carbonate hydrochloride]
10 | 100 | 643 | 0.49 | – | 4.1 | – | – | – | – | CS(=O)(=O)c1ccc([C@@H](OC(=O)CCCCN)[C@@H](CF)NC(=O)C(Cl)Cl)cc1.Cl [Example 10, (1R,2S)-2-(2,2-dichloroacetamido)-3-fluoro-1-(4-(methylsulfonyl)phenyl)propyl 5-aminopentanoate hydrochloride]

Second part, the compound before the results:

Row | Compound | half-life at 1 mg/mL [1, 6] [h] | half-life at 0.5 mg/mL [2] [days] | half-life at 0.099 mg/mL ([3]; florfenicol release by HPLC) [h] | formation of the rearranged isomer of the prodrug [4] | half-life at 0.099 mg/mL [5] [h] | half-life at 1 mg/mL [1, 7] [h] | half-life at 1 mg/mL ([1]; pH 7.4, pH 7.4 phosphate buffer, 1 mg/mL, room temperature, min, read-out: Half life pH 7.4 (converted)) [h] | half-life at 0.099 mg/mL ([3]; min) [h] | rearrangement in bovine serum [3]
11 | C[C@@H](N)C(=O)NCCCC(=O)O[C@H](c1ccc(S(C)(=O)=O)cc1)[C@@H](CF)NC(=O)C(Cl)Cl.Cl [Example 4, (1R,2S)-2-(2,2-dichloroacetamido)-3-fluoro-1-(4-(methylsulfonyl)phenyl)propyl 4-(2-amino-propionylamino)butyrate hydrochloride] | 670 | 278 | 6.5 | – | – | – | – | – | –
12 | CNCCCOC(=O)O[C@H](c1ccc(S(C)(=O)=O)cc1)[C@@H](CF)NC(=O)C(Cl)Cl.Cl [Example 6, (1R,2S)-2-(2,2-dichloroacetamido)-3-fluoro-1-(4-(methylsulfonyl)phenyl)propyl 3-(methylamino)propyl carbonate hydrochloride] | 74 | 269 | 0.69 | did not show any formation of the rearranged isomer | 7 | – | – | – | –
13 | CNCCOC(=O)O[C@H](c1ccc(S(C)(=O)=O)cc1)[C@@H](CF)NC(=O)C(Cl)Cl.Cl [Example 2, (1R,2S)-2-(2,2-dichloroacetamido)-3-fluoro-1-(4-(methylsulfonyl)phenyl)propyl 2-(methylamino)ethyl carbonate hydrochloride] | 0.5 | 487 | – | considerable amounts | – | ≤ 3 | – | – | –
14 | CS(=O)(=O)c1ccc([C@@H](OC(=O)CCCN)[C@@H](CF)NC(=O)C(Cl)Cl)cc1.Cl [Example 3, (1R,2S)-2-(2,2-dichloroacetamido)-3-fluoro-1-(4-(methylsulfonyl)phenyl)propyl 4-aminobutyrate hydrochloride] | 300 | – | 3.5 | – | – | – | – | – | –
15 | CS(=O)(=O)c1ccc([C@@H](OC(=O)OCCCN)[C@@H](CF)NC(=O)C(Cl)Cl)cc1.Cl [Example 5, (1R,2S)-2-(2,2-dichloroacetamido)-3-fluoro-1-(4-(methylsulfonyl)phenyl)propyl 3-aminopropyl carbonate hydrochloride] | 83 | 248 | 3.8 | only a small amount of rearrangement product | 9.5 | – | – | – | no rearrangement was observed
16 | CCNCCOC(=O)O[C@H](c1ccc(S(C)(=O)=O)cc1)[C@@H](CF)NC(=O)C(Cl)Cl.Cl [Example 7, (1R,2S)-2-(2,2-dichloroacetamido)-3-fluoro-1-(4-(methylsulfonyl)phenyl)propyl 2-(ethylamino)ethyl carbonate hydrochloride] | 6.1 | 156 | 0.59 | considerable amounts | – | ≤ 3 | – | – | –
17 | CS(=O)(=O)c1ccc([C@@H](OC(=O)OCCN)[C@@H](CF)NC(=O)C(Cl)Cl)cc1.Cl [Example 1, (1R,2S)-2-(2,2-dichloroacetamido)-3-fluoro-1-(4-(methylsulfonyl)phenyl)propyl 2-aminoethyl carbonate hydrochloride] | 1.8 | 202 | 0.7 | considerable amounts | – | ≤ 3 | – | – | –

From patent US8084643B2, “Water-soluble prodrugs of florfenicol and its analogs” (Intervet Inc., priority 2006, dated 2011)
